Laboratory results from the NIST ThermoML archive (doi:10.1021/acs.jced.5b00662).
Where “and” joins values, the source holds several entries; their conditions need not be identical. Identical values can stand only once.

Assays:
[1] = 101.33 kPa, Liquid; for speed of sound: Sing-around technique in a fixed-path interferometer; for mass density: Vibrating tube method; for viscosity: Concentric cylinders viscometry
[2] = refractive index (Na D-line) (dimensionless); conditions: 101.33 kPa, Liquid, Standard Abbe refractometry
[3] = xn = mol fraction of the nth substance listed; conditions: 100 kPa, Liquid; for speed of sound: Sing-around technique in a fixed-path interferometer; for mass density: Vibrating tube method

OCCO [1,2-ethanediol]
Conditions	mass density, [1]	refractive index, [2]	speed of sound, [1] [m/s]	viscosity, [1] [mPa·s]
283.15 K	1120.2 kg/m3	1.43461	1689.9	–
288.15 K	1118.2 kg/m3	1.43312	1678.3	26.8
293.15 K	1114.6 kg/m3 and 1113.3 kg/m3	1.43167	1666.5	21.2
298.15 K	1111.1 kg/m3	1.43	1654.7	17.13
303.15 K	1106.3 kg/m3 and 1107.6 kg/m3	1.42855	1642.9	14
308.15 K	1104.1 kg/m3	–	1631.1	11.58
313.15 K	1099.2 kg/m3 and 1100.5 kg/m3	1.42562	1619.3	9.627
318.15 K	1097 kg/m3	–	–	8.182
323.15 K	1092.1 kg/m3 and 1093.4 kg/m3	1.4226	1595.5	6.98
328.15 K	1089.8 kg/m3	–	–	6.007
333.15 K	1084.8 kg/m3 and 1086.2 kg/m3	1.41955	1571.5	5.197
338.15 K	1082.6 kg/m3	–	–	4.555
343.15 K	1078.9 kg/m3 and 1077.5 kg/m3	1.41655	1547.4	4.01
348.15 K	1075.2 kg/m3	–	–	3.552
353.15 K	1071.5 kg/m3	1.41351	–	3.161
358.15 K	1067.8 kg/m3	–	–	2.835
363.15 K	1064 kg/m3	–	–	2.552
368.15 K	1060.2 kg/m3	–	–	2.306
373.15 K	1056.4 kg/m3	–	–	2.102

OCCO [1,2-ethanediol] + O
[3]
Conditions	mass density, x1 = 0.9886 [kg/m3]	mass density, x1 = 0.9943 [kg/m3]	mass density, x1 = 0.9959 [kg/m3]	speed of sound, x1 = 0.9886 [m/s]	speed of sound, x1 = 0.9943 [m/s]	speed of sound, x1 = 0.9959 [m/s]
283.15 K	1119.9	1120.07	1120.11	1690.2	1689	1690.6
288.15 K	1116.43	–	–	1678.4	1678.1	1678.6
293.15 K	1112.94	1113.11	1113.15	1666.6	1666.3	1666.6
298.15 K	1109.46	–	–	1654.7	1654.8	1654.6
303.15 K	1105.95	1106.11	1106.15	1643	1643	1642.7
308.15 K	1102.43	–	–	1631.2	1631.3	1630.9
313.15 K	1098.89	1099.05	1099.1	1619.5	1619.4	1619.1
323.15 K	1091.75	1091.9	1091.95	1595.7	1595.5	1595.2
333.15 K	1084.51	1084.67	1084.72	1571.7	1571.5	1571.2
343.15 K	1077.16	1077.33	1077.37	1547.6	1547.4	1547.1

COCCOCCOCCOCCOC [2,5,8,11,14-pentaoxapentadecane]
Conditions	mass density, [1]	refractive index, [2]	speed of sound, [1] [m/s]	viscosity, [1] [mPa·s]
283.15 K	1020.7 kg/m3	1.43599	1439.7	–
288.15 K	1017 kg/m3 and 1016.1 kg/m3	1.43414	1420.3	4.337
293.15 K	1012.3 kg/m3 and 1011.5 kg/m3	1.43196	1401	3.846
298.15 K	1006.8 kg/m3 and 1007.6 kg/m3	1.42992	1382	3.335
303.15 K	1002.2 kg/m3 and 1003.1 kg/m3	1.42777	1363.1	2.967
308.15 K	997.6 kg/m3 and 998.8 kg/m3	–	1344.3	2.66
313.15 K	993 kg/m3 and 994.1 kg/m3	1.42373	1325.6	2.389
318.15 K	989.5 kg/m3	–	–	2.183
323.15 K	983.7 kg/m3 and 984.9 kg/m3	1.41973	1289.1	1.995
328.15 K	980.2 kg/m3	–	–	1.832
333.15 K	974.5 kg/m3 and 975.6 kg/m3	1.41578	1253.4	1.677
338.15 K	971 kg/m3	–	–	1.566
343.15 K	966.5 kg/m3 and 965.3 kg/m3	1.41174	1218.5	1.456
348.15 K	961.9 kg/m3	–	–	1.358
353.15 K	957.3 kg/m3	1.40773	–	1.25
358.15 K	952.7 kg/m3	–	–	1.188
363.15 K	948.1 kg/m3	–	–	1.115
368.15 K	943.5 kg/m3	–	–	1.047
373.15 K	938.9 kg/m3	–	–	0.978

COCCOCCOCCOC [2,5,8,11-tetraoxadodecane]
Conditions	mass density, [1]	refractive index, [2]	speed of sound, [1] [m/s]	viscosity, [1] [mPa·s]
283.15 K	994.1 kg/m3	1.42712	1401.4	–
288.15 K	990.8 kg/m3 and 989.4 kg/m3	1.42498	1381.4	2.414
293.15 K	986 kg/m3 and 984.6 kg/m3	1.42284	1361.6	2.162
298.15 K	979.9 kg/m3 and 981.5 kg/m3	1.42071	1342.1	1.956
303.15 K	975.1 kg/m3 and 976.7 kg/m3	1.41862	1322.8	1.777
308.15 K	970.4 kg/m3 and 971.9 kg/m3	–	1303.6	1.623
313.15 K	965.6 kg/m3 and 967.2 kg/m3	1.41434	1284.4	1.439
318.15 K	962.4 kg/m3	–	–	1.373
323.15 K	956.1 kg/m3 and 957.7 kg/m3	1.41005	1246.9	1.27
328.15 K	952.9 kg/m3	–	–	1.179
333.15 K	946.5 kg/m3 and 948.1 kg/m3	1.40579	1209.9	1.064
338.15 K	943.3 kg/m3	–	–	1.026
343.15 K	938.6 kg/m3 and 936.9 kg/m3	1.40153	1174	0.962
348.15 K	933.8 kg/m3	–	–	0.903
353.15 K	929 kg/m3	1.39723	–	0.814
358.15 K	924.2 kg/m3	–	–	0.801
363.15 K	919.4 kg/m3	–	–	0.756
368.15 K	914.5 kg/m3	–	–	0.715
373.15 K	909.7 kg/m3	–	–	0.65

COCCOCCOC [2,5,8-trioxanonane]
Conditions	mass density, [1]	refractive index, [2]	speed of sound, [1] [m/s]	viscosity, [1] [mPa·s]
283.15 K	953.7 kg/m3	1.41249	1340.7	–
288.15 K	950.2 kg/m3 and 948.7 kg/m3	1.4102	1320	1.161
293.15 K	945.2 kg/m3 and 943.8 kg/m3	1.40802	1299.9	1.081
298.15 K	938.8 kg/m3 and 940.2 kg/m3	1.40579	1280	1.011
303.15 K	933.8 kg/m3 and 935.2 kg/m3	1.40359	1260.1	0.942
308.15 K	928.8 kg/m3 and 930.2 kg/m3	–	1240.3	0.879
313.15 K	923.8 kg/m3 and 925.2 kg/m3	1.39921	1220.6	0.825
318.15 K	920.2 kg/m3	–	–	0.767
323.15 K	913.7 kg/m3 and 915.2 kg/m3	1.3949	1181.7	0.718
328.15 K	910.1 kg/m3	–	–	0.674
333.15 K	903.6 kg/m3 and 905 kg/m3	1.3905	1143.4	0.633
338.15 K	899.9 kg/m3	–	–	0.599
343.15 K	894.8 kg/m3 and 893.4 kg/m3	1.38623	1105.8	0.566
348.15 K	889.7 kg/m3	–	–	0.537
353.15 K	884.6 kg/m3	1.38178	–	0.505
358.15 K	879.4 kg/m3	–	–	0.486
363.15 K	874.2 kg/m3	–	–	0.464
368.15 K	869 kg/m3	–	–	0.444
373.15 K	863.8 kg/m3	–	–	0.441

COCCOCCO [2-(2-methoxyethoxy)ethanol]
Conditions	mass density, [1]	refractive index, [2]	speed of sound, [1] [m/s]	viscosity, [1] [mPa·s]
283.15 K	1028.6 kg/m3	1.42914	1467.7	–
288.15 K	1025.3 kg/m3 and 1024.2 kg/m3	1.42723	1450.2	4.514
293.15 K	1021 kg/m3 and 1019.8 kg/m3	1.42498	1432.7	3.963
298.15 K	1015.4 kg/m3 and 1016.3 kg/m3	1.4239	1415.4	3.403
303.15 K	1011 kg/m3 and 1011.9 kg/m3	1.42174	1398.1	3
308.15 K	1006.6 kg/m3 and 1007.4 kg/m3	–	1380.9	2.666
313.15 K	1002.1 kg/m3 and 1003 kg/m3	1.41733	1363.9	2.373
318.15 K	998.8 kg/m3	–	–	2.148
323.15 K	993.2 kg/m3 and 994.3 kg/m3	1.41368	1329.7	1.946
328.15 K	989.8 kg/m3	–	–	1.772
333.15 K	984.1 kg/m3 and 985.3 kg/m3	1.4101	1296.1	1.606
338.15 K	981 kg/m3	–	–	1.489
343.15 K	976.5 kg/m3 and 975 kg/m3	1.40635	1262.7	1.372
348.15 K	971.8 kg/m3	–	–	1.268
353.15 K	967.2 kg/m3	1.40241	–	1.155
358.15 K	962.5 kg/m3	–	–	1.094
363.15 K	957.9 kg/m3	–	–	1.019
368.15 K	953.1 kg/m3	–	–	0.95
373.15 K	948.5 kg/m3	–	–	0.877

CCOCCO [2-ethoxyethan-1-ol]
Conditions	mass density, [1]	refractive index, [2]	speed of sound, [1] [m/s]	viscosity, [1] [mPa·s]
283.15 K	941.2 kg/m3	1.4149	1360.6	–
288.15 K	936.8 kg/m3 and 936.7 kg/m3	1.4125	1342	2.314
293.15 K	932.3 kg/m3 and 932.2 kg/m3	1.41024	1323.9	2.066
298.15 K	927.6 kg/m3 and 927.7 kg/m3	1.40803	1305.7	1.845
303.15 K	923.1 kg/m3	1.40613	1286.7	1.661
308.15 K	918.5 kg/m3	–	1268.6	1.503
313.15 K	913.8 kg/m3 and 913.9 kg/m3	1.4018	1250.2	1.365
318.15 K	909.3 kg/m3	–	–	1.247
323.15 K	904.5 kg/m3 and 904.6 kg/m3	1.39691	1213.8	1.143
328.15 K	899.9 kg/m3	–	–	1.051
333.15 K	895 kg/m3 and 895.1 kg/m3	1.39271	1178.5	0.962
338.15 K	890.4 kg/m3	–	–	0.895
343.15 K	885.5 kg/m3 and 885.2 kg/m3	1.38849	1143.7	0.829
348.15 K	880.7 kg/m3	–	–	0.77
353.15 K	875.8 kg/m3	1.3838	–	0.725
358.15 K	871 kg/m3	–	–	0.666
363.15 K	866.1 kg/m3	–	–	0.623
368.15 K	861.2 kg/m3	–	–	0.584
373.15 K	856.3 kg/m3	–	–	0.518
